Test results published in US8933046B2 (priority 2009, dated 2015).

What was measured:
[1] = tested on: influenza A/WSN/33 (H1N1) virus; assay type: cell-based
[2] = tested on: influenza A/Hamburg/04/2009 (H1N1) virus; assay type: cell-based
[3] = tested on: A549 cells; assay: Influence of TG003 on cell viability (WST-1 assay); assay type: cell-based, human; details: TG003 50 μM
Method: FIG. 18|Influence of the chemical CLK1 inhibitor TG003 on cell viability. A549 cells were incubated with TG003 (50 μM, dissolved in DMSO), with DMSO or left untreated. Cell viability was evaluated at the indicated time points using the WST-1 assay, according to the manufacturer's instructions. Shown are the mean values from three replicates. Error bars indicate the standard deviation.
Determination of host cell viability upon siRNA transfection was performed using cell proliferation assay WST-1 (Roche, Mannheim, Germany). WST-1 reagent was added to the cells 48 h after siRNA transfection and incubated at 37° C. for 1.5 h. Absorbance was measured at 460 nm and at the reference wavelength 590 nm. Non-targeting siRNA Allstars and siPLK1 were used as a […].

[4] = tested on: viral M1 and M2 mRNA (influenza A/WSN/33); assay type: cell-based, influenza A virus
[5] = tested on: viral M1 and M2 protein (influenza A/WSN/33); assay type: cell-based, influenza A virus
[6] = tested on: vesicular stomatitis virus (VSV); assay type: cell-based; details: TG003 50 μM, A549 pretreated 24 h, VSV MOI 0.01, 24 h p.i.

## WNT3A
[1]
  normalised inhibition of infectious virus particles, siRNA1: 0.36
  normalised inhibition of infectious virus particles, siRNA2: −0.16
  normalised inhibition of infectious virus particles, siRNA3: 0.64
  normalised inhibition of infectious virus particles, siRNA4: 0.81
[2]
  normalised inhibition of infectious virus particles, siRNA1: 0.53
  normalised inhibition of infectious virus particles, siRNA2: 0.4
  normalised inhibition of infectious virus particles, siRNA3: 0.91
  normalised inhibition of infectious virus particles, siRNA4: 1.1

## CCN1/C(=C/C(C)=O)Sc2ccc(OC)cc21 [TG003]
[3]
  toxic effects (cell viability, WST-1): without exerting detectable toxic effects
[4]
  levels of spliced M2 viral RNA: reduced
  unspliced M1 and NS1/NS2 viral RNA: unaffected
[5]
  M1 protein levels: remained relatively constant
  M2 protein levels: drastically reduced
[6]
  replication of vesicular stomatitis virus (VSV): only slightly reduced
